Experimental findings from patent US10988477B2 (Merck Patent GmbH, priority 2018, dated 2021) are described below.

GCN2 kinase, sequence (Q9P2K8 whole entry): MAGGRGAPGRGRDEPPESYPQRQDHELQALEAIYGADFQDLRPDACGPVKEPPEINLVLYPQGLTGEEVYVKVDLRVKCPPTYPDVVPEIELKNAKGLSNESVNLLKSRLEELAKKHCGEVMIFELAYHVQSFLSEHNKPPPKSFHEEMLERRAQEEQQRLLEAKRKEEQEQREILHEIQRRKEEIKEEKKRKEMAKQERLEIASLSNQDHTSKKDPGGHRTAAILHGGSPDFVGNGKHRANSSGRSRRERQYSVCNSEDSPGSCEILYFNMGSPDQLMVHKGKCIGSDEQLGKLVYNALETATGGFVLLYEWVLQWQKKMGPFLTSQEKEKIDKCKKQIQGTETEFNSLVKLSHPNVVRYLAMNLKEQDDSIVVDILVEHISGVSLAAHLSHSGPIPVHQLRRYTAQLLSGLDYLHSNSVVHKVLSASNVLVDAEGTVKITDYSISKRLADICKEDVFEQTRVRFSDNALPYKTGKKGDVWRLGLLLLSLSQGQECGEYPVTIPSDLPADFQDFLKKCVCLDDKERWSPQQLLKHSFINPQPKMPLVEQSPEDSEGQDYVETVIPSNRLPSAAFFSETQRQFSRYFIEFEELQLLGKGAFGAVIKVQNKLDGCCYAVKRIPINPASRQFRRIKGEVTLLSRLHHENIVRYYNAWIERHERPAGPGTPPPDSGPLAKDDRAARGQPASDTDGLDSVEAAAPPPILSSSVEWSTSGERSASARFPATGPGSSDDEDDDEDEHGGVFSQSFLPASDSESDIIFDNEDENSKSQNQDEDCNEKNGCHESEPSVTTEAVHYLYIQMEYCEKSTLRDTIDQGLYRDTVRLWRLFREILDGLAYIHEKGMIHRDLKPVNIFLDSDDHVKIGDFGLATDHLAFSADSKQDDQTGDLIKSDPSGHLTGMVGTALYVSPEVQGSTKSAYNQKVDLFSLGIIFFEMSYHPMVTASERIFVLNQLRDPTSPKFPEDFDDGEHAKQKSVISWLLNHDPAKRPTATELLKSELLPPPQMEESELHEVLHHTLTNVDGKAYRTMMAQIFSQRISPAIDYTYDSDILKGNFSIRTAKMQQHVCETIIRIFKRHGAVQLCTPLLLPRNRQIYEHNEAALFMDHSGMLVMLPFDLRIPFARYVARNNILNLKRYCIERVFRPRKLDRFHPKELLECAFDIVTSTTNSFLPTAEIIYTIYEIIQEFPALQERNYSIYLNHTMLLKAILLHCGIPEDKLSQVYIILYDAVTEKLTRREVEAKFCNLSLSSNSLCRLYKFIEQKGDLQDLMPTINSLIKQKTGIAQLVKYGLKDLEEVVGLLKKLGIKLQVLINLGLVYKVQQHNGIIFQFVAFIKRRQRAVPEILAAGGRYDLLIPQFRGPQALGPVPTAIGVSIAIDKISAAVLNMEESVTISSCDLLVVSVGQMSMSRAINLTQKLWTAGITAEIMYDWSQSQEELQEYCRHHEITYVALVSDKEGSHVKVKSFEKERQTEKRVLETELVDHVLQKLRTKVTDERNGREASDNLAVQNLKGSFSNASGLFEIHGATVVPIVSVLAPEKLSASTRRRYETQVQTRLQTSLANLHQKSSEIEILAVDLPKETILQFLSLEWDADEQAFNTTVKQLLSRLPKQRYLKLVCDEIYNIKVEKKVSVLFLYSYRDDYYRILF

The first experiment has as its target GCN2 kinase (Homo sapiens, UniProt Q9P2K8). Nature of the experiment: GCN2 enzyme inhibition assay (Transcreener ADP2 fluorescence polarization). It counts as biochemical. Particulars: Enzyme activity for compounds of Formula IV; Ki(app), 280 μM ATP, 25° C. The essentials: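 Inhibition of 4 nM GCN2 was measured with compound up to 8 μM final, ATP 280 μM and (RS)7 peptide 200 μM over a 1 h, 25 °C reaction. ADP FP readout; IC50 and Ki(app) calculated from percent inhibition.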
Background: Fluorescence polarisation rises when a labelled molecule tumbles more slowly, as on binding a larger partner.
As for `CC(=O)Nc1ccc(-c2cn3c(-c4nccc(N5CCN(C(C)=O)CC5)n4)cnc3cn2)cc1` [IV-298, N-(4-(3-(4-(4-Acetylpiperazin-1-yl)pyrimidin-2-yl)imidazo[1,2-a]pyrazin-6-yl)phenyl)acetamide], the Ki fell in the range of 0.1 to 1 µM. Turning to `COCC1CN(c2ccnc(-c3cnc4cnc(C(F)(F)F)cn34)n2)CC(C)O1` (stereo not shown) [IV-586, 2-(Methoxymethyl)-6-methyl-4-(2-(6-(trifluoromethyl)imidazo[1,2-a]pyrazin-3-yl)pyrimidin-4-yl)morpholine], the Ki was 0.1 to 1 µM.

In turn, `CNS(=O)(=O)C1CCCN(c2ccnc(-c3cnc4cnc(C(N)=O)cn34)n2)C1` (stereo not shown) [IV-251, 3-(4-(3-(N-Methylsulfamoyl)piperidin-1-yl)pyrimidin-2-yl)imidazo[1,2-a]pyrazine-6-carboxamide] displayed a Ki of 0.1 to 1 µM. Compound `CC1CN(c2ccnc(-c3cnc4cnc(C#N)cn34)n2)C(C)C(c2cn[nH]c2)N1` (single isomer, unassigned) [IV-314, 3-(4-(2,5-Dimethyl-3-(1H-pyrazol-4-yl)piperazin-1-yl)pyrimidin-2-yl)imidazo[1,2-a]pyrazine-6-carbonitrile] registered a Ki below 0.01 µM. Consider `C[C@H]1[C@@H](c2cn[nH]c2)OCCN1c1ccnc(-c2cnc3cnc(Br)cn23)n1` (racemic) [IV-306, Cis-4-(2-(6-Bromoimidazo[1,2-a]pyrazin-3-yl)pyrimidin-4-yl)-3-methyl-2-(1H-pyrazol-4-yl)morpholine], for which the Ki is below 0.01 µM.

Consider `CN1CCN(c2ccnc(-c3cnc4cnc(C(F)(F)F)cn34)n2)CC1` [IV-585, 3-(4-(4-Methylpiperazin-1-yl)pyrimidin-2-yl)-6-(trifluoromethyl)imidazo[1,2-a]pyrazine], for which the Ki was in the range of 0.1 to 1 µM. `CC1c2ccsc2CCN1c1ccnc(-c2cnc3cnc(C(F)(F)F)cn23)n1` (stereo not shown) [IV-730] came in with a Ki above 1 µM. `CC1CN(c2ccnc(-c3cnc4cnc(C(F)(F)F)cn34)n2)CC(c2cn[nH]c2C(F)(F)F)N1` (single isomer, unassigned) [IV-475, 3-(4-(3-Methyl-5-(5-(trifluoromethyl)-1H-pyrazol-4-yl)piperazin-1-yl)pyrimidin-2-yl)-6-(trifluoromethyl)imidazo[1,2-a]pyrazine]: the Ki fell in the range of 0.01 to 0.1 µM.

Compound `NC(=O)c1cn2c(-c3nccc(N4CCCC(CO)C4)n3)cnc2cn1` (stereo not shown) [IV-242, 3-(4-(3-(Hydroxymethyl)piperidin-1-yl)pyrimidin-2-yl)imidazo[1,2-a]pyrazine-6-carboxamide] had a Ki of 0.01 to 0.1 µM. The compound `Cc1nc(C2=CCCN(c3ccnc(-c4cnc5cnc(Br)cn45)n3)C2)c[nH]1` [IV-356, 6-Bromo-3-(4-(5-(2-methyl-1H-imidazol-4-yl)-3,6-dihydropyridin-1(2H)-yl)pyrimidin-2-yl)imidazo[1,2-a]pyrazine] returned a Ki below 0.01 µM.

`NS(=O)(=O)C1CCCN(c2ccnc(-c3cnc4cnc(C(F)(F)F)cn34)n2)C1` (stereo not shown) [IV-536, 1-(2-(6-(Trifluoromethyl)imidazo[1,2-a]pyrazin-3-yl)pyrimidin-4-yl)piperidine-3-sulfonamide] registered a Ki of 0.1 to 1 µM.

Regarding `CC1CCN(c2ccnc(-c3cnc4cnc(C(F)(F)F)cn34)n2)CC1n1ccnc1` (stereo not shown) [IV-320, 3-(4-(3-(1H-Imidazol-1-yl)-4-methylpiperidin-1-yl)pyrimidin-2-yl)-6-(trifluoromethyl)imidazo[1,2-a]pyrazine], the Ki lay within 0.1 to 1 µM. Compound `CC(=O)N1CCN(c2ccnc(-c3cnc4cnc(-c5cccc(O)c5)cn34)n2)CC1` [IV-309, 1-(4-(2-(6-(3-Hydroxyphenyl)imidazo[1,2-a]pyrazin-3-yl)pyrimidin-4-yl)piperazin-1-yl)ethan-1-one] yielded a Ki of 0.01 to 0.1 µM. On the same count and under the same terms, with `O=C(Nc1ccncc1)[C@H]1CCCN(c2ccnc(-c3cnc4cnc(C(F)(F)F)cn34)n2)C1` [IV-720] the figure was 0.1 to 1 µM. On to `O=C(Nc1cn[nH]c1)[C@H]1CCCN(c2ccnc(-c3cnc4cnc(C(F)(F)F)cn34)n2)C1` [IV-721], for which the Ki lay within 0.1 to 1 µM.

Regarding `FC(F)(F)c1cn2c(-c3nccc(N4CCCC(c5cc(C(F)(F)F)[nH]n5)C4)n3)cnc2cn1` (stereo not shown) [IV-653, 6-(Trifluoromethyl)-3-(4-(3-(5-(trifluoromethyl)-1H-pyrazol-3-yl)piperidin-1-yl)pyrimidin-2-yl)imidazo[1,2-a]pyrazine], the Ki lay in the range of 0.1 to 1 µM.

Staying with this experiment, now noted: compounds of Formula II; 280 μM ATP, 4 nM GCN2 kinase.
The compound `C[C@@H]1C[C@H](CS(C)(=N)=O)[C@H](C)N(c2cc(-c3cnc4ccc(C(F)F)nn34)ncn2)C1` (stereo partly drawn) [II-606, (((2S,3S,5R)-1-(6-(6-(Difluoromethyl)imidazo[1,2-b]pyridazin-3-yl)pyrimidin-4-yl)-2,5-dimethylpiperidin-3-yl)methyl)(imino)(methyl)-λ^6-sulfanone] had a Ki below 0.01 µM. Consider `C[C@H]1C[C@@H](CS(C)(=N)=O)[C@@H](C)N(c2cc(-c3cnc4ccc(C(F)F)nn34)ncn2)C1` (stereo partly drawn) [II-605, (((2R,3R,5S)-1-(6-(6-(Difluoromethyl)imidazo[1,2-b]pyridazin-3-yl)pyrimidin-4-yl)-2,5-dimethylpiperidin-3-yl)methyl)(imino)(methyl)-λ^6-sulfanone], for which the Ki lay in the range of 0.01 to 1 µM. The compound `CC1C(CN=S(C)(C)=O)CCCN1c1cc(-c2cnc3ccc(C(F)F)nn23)ncn1` (stereo not shown) [II-584, (((1-(6-(6-(Difluoromethyl)imidazo[1,2-b]pyridazin-3-yl)pyrimidin-4-yl)-2-methylpiperidin-3-yl)methyl)imino)dimethyl-λ^6-sulfanone] returned a Ki of 0.01 to 1 µM. Regarding `CN1CCN(c2cc(-c3cnc4ccc(C(F)F)nn34)ncn2)CC1CCO` (stereo not shown) [II-514, 2-(4-(6-(6-(Difluoromethyl)imidazo[1,2-b]pyridazin-3-yl)pyrimidin-4-yl)-1-methylpiperazin-2-yl)ethan-1-ol], the Ki was 0.01 to 1 µM. For the compound `C[C@H]1C[C@@H](CS(C)(=N)=O)[C@@H](C)N(c2cc(-c3cnc4ccc(C(F)F)nn34)ncn2)C1` (stereo partly drawn) [II-604, (((2R,3R,5S)-1-(6-(6-(Difluoromethyl)imidazo[1,2-b]pyridazin-3-yl)pyrimidin-4-yl)-2,5-dimethylpiperidin-3-yl)methyl)(imino)(methyl)-λ^6-sulfanone], the Ki was in the range of 0.01 to 1 µM. As for `CC1C(N=S(C)(C)=O)CCCN1c1cc(-c2cnc3ccc(C(F)F)nn23)ncn1` (single isomer, unassigned) [II-581, ((1-(6-(6-(Difluoromethyl)imidazo[1,2-b]pyridazin-3-yl)pyrimidin-4-yl)-2-methylpiperidin-3-yl)imino)dimethyl-λ^6-sulfanone], the Ki lay in the range of 0.01 to 1 µM. For `CC(C)C(C)(O)C1CCCN(c2cc(-c3cnc4ccc(C(F)F)nn34)ncn2)C1` (stereo not shown) [II-621, 2-(1-(6-(6-(Difluoromethyl)imidazo[1,2-b]pyridazin-3-yl)pyrimidin-4-yl)piperidin-3-yl)-3-methylbutan-2-ol], the Ki was 0.01 to 1 µM. On to `CC1CC(CS(C)(=O)=O)C(C)N(c2cc(-c3cnc4ccc(C(F)F)nn34)ncn2)C1` (stereo not shown) [II-588, 6-(difluoromethyl)-3-[6-[2,5-dimethyl-3-(methylsulfonylmethyl)-1-piperidyl]pyrimidin-4-yl]imidazo[1,2-b]pyridazine], for which the Ki lay in the range of 0.01 to 1 µM. In turn, `CC(C)(O)C1CCCN(c2cc(-c3cnc4ccc(C(F)F)nn34)ncn2)C1` (single isomer, unassigned) [II-614, 2-(1-(6-(6-(Difluoromethyl)imidazo[1,2-b]pyridazin-3-yl)pyrimidin-4-yl)piperidin-3-yl)propan-2-ol] registered a Ki of 0.01 to 1 µM.
